From article PMC9564337, “Development of a Neurotensin-Derived ^68Ga-Labeled PET Ligand with High In Vivo Stability for Imaging of NTS1 Receptor-Expressing Tumors” (Cancers, 2022)
Marks after values point to notes of the source that are not given here. One block for each compound: values may come before it.

Assays:
[1] = cited from earlier work
[2] = test system: HT-29 tumor-bearing nude mice; experiment: in vivo; details: mouse
Procedure: (§1) 8–12 weeks old female NMRI nude (nu/nu) mice (body weight 22–32 g) (Charles River, Sulzfeld, Germany) were kept under specified pathogen free (SPF) conditions at 23 °C, 55% relative humidity and a 12 h light/dark cycle in the central animal facility of the University of Regensburg using type III cages from Tecniplast (Hohenpeißenberg, Germany). The animals took food (Ssniff, Soest, Germay) and autoclaved tap water ad libitum. For tumor cell implantation, the culture medium of HT-29 cells was removed, the cells were detached from the culture flask by incubation for 2 min in trypsin-EDTA and the suspension was centrifuged (5 min, rt, 164 g). The supernatant was removed, and the cell pellet was washed twice with sterile PBS or serum-free medium (5–6 mL). The cells were resuspended in sterile PBS to a final density of 1 × 10^7 cells/mL. Mice were injected subcutaneously into the right flank with the HT-29 cell suspension (100 µL). After 2–4 weeks, when the tumors had reached a size of 50–500 mm^3, animals were used for biodistribution and PET/computed tomography (CT) imaging studies (note: for PET/CT studies, the tumor size was at least 200 mm^3).
(§2) Aliquots of the tracer stock were diluted in PBS to give a volume of 200 µL. 80–100 µL (0.9–5.9 MBq) of this solution were injected into anesthetized HT-29 tumor-bearing nude mice via the tail vein. Animals were kept on a heating plate (set to 40 °C) or a pre-heated (ca. 45 °C) gel cushion and were killed by cardiac puncture 10 min, 25 min or 45 min p.i. immediately followed by taking blood, urine and tissue (i.e., tumor, kidney, liver, gall bladder, spleen, small intestine, heart, lung, brain, pancreas, femur and muscle) samples. Radioactivity measurement of the samples was performed with the Canberra Genie 2000 system described for the determination of the distribution coefficient logD7.4. Decay-corrected measured activities (cpm) were converted into activities (MBq) on the basis of an activity measurement with a ^68Ge-calibration standard source (Eckert&Ziegler, Berlin, Germany). Sample activities were converted to percentage of injected dose per gram tissue (%ID/g). Blocking experiments were performed by co-injection of the tracer with NTS1R ligand 48 (ca. 700 nmol per mouse). Mice were killed 45 min p.i. and analyzed as described above. The animals used for the 45-min biodistribution experiments were the same as used for the PET/CT imaging studies.

in vivo = details: female, NMRI nude (nu/nu), mouse, total radioactivity; for tissue to tissue ratio at 0.75 h: iv, tumor-to-muscle ratio
Procedure: as §1, §2

physchem = type: physicochemical; details: pH 7.4
Procedure: The distribution coefficients logD7.4 of the radiotracers [^68Ga]21, [^68Ga]33, [^68Ga]37 and [^68Ga]56 were determined by adding a solution of the tracer in PBS (100 μL, ca. 0.20–0.34 MBq) to a mixture of n-octanol (500 μL) and PBS (pH 7.4) (400 μL) in a 2-mL HPLC vial (Agilent, article number 5182-0714) with a screw cap equipped with a septum (Agilent, article number 5182-0717). After vortexing the mixture for 2 min, two 100 μL aliquots of the upper phase (n-octanol) were taken. To obtain a sample of the lower phase (PBS), the HPLC vial was held upside down and approximately 100–150 µL of the aqueous phase were removed using a syringe equipped with a canula and collected in a reaction vessel. Two 10 µL aliquots of the aqueous phase were subjected to measurement. The activity of the aliquots was measured with a Canberra Genie 2000 system (Canberra, Rüsselsheim, Germany) using the Gamma Acquisition & Analysis Software Genie 2000 3.4.1. Experiments were performed in triplicate. The decay-corrected counts per minute (cpm) values were averaged (n = 3) and transformed to a distribution coefficient logD7.4 according to logD7.4 = log(Aoctanol/Aaqueous), where Aoctanol is the mean of the decay-corrected cpm values obtained for samples of the n-octanol phase, and Aaqueous is the mean of the decay-corrected cpm values obtained for samples of the aqueous phase.

[3] = Uptake (%ID/g) gall bladder (bile)
[4] = female, NMRI nude (nu/nu), 0.75 h

tumor-to-muscle ratio [2]: 4.1 | tissue to tissue ratio at 0.75 h (in vivo): 4.1 ± 1.7 | tissue uptake at 0.75 h (in vivo; Uptake (%ID/g) blood): 1.3 ± 0.29 %ID/g | tissue uptake at 0.75 h (in vivo; [3]): 2 ± 0.14 %ID/g | tissue uptake at 0.75 h (in vivo; Uptake (%ID/g) kidney): 10 ± 0.96 %ID/g | tissue uptake at 0.75 h (in vivo; Uptake (%ID/g) liver): 16 ± 2.2 %ID/g | tissue uptake at 0.75 h (in vivo; Uptake (%ID/g) muscle): 0.41 ± 0.17 %ID/g | tissue uptake at 0.75 h (in vivo; Uptake (%ID/g) tumor): 1.5 ± 0.22 %ID/g | logD (physchem): -2.48
Compound: CN[C@@H](CCCNC(N)=NC(=O)NCCOCCOCCNC(=O)[C@@H](Cc1ccc(-c2ccc(F)cc2)cc1)NC(=O)CCCCCNC(=O)CN1CCN(CC(=O)O)CCN(CC(=O)O)CCN(CC(=O)O)CC1)C(=O)N[C@@H](CCCNC(=N)N)C(=O)N1CCC[C@H]1C(=O)N[C@@H](Cc1ccc(O)cc1)C(=O)N[C@H](C(=O)N[C@@H](CC(C)C)C(=O)O)C(C)(C)C [[^68Ga]33, metal not drawn]

tumor-to-muscle ratio [2]: 3.4 | tissue to tissue ratio at 0.75 h (in vivo): 3.4 ± 0.71 | tissue uptake at 0.75 h (in vivo; [3]): 1.9 ± 0.34 %ID/g | tissue uptake at 0.75 h (in vivo; Uptake (%ID/g) kidney): 7.6 ± 0.39 %ID/g | tissue uptake at 0.75 h (in vivo; Uptake (%ID/g) liver): 4.1 ± 0.79 %ID/g | tissue uptake at 0.75 h (in vivo; Uptake (%ID/g) muscle): 0.5 ± 0.18 %ID/g | tissue uptake at 0.75 h (in vivo; Uptake (%ID/g) tumor): 1.6 ± 0.19 %ID/g | logD (physchem): -2.59
Compound: CN[C@@H](CCCNC(N)=NC(=O)NCCOCCOCCNC(=O)[C@@H](Cc1ccc(-c2ccc(F)cc2)cc1)NC(=O)CN1CCN(CC(=O)O)CCN(CC(=O)O)CCN(CC(=O)O)CC1)C(=O)N[C@@H](CCCNC(=N)N)C(=O)N1CCC[C@H]1C(=O)N[C@@H](Cc1ccc(O)cc1)C(=O)N[C@H](C(=O)N[C@@H](CC(C)C)C(=O)O)C(C)(C)C [[^68Ga]37, metal not drawn]

Uptake (%ID/g) blood [2, 4]: 1.4 ± 1.0 %ID/g | Uptake (%ID/g) brain [2, 4]: 0.10 ± 0.074 %ID/g | Uptake (%ID/g) femur [2, 4]: 0.65 ± 0.43 %ID/g | Uptake (%ID/g) heart [2, 4]: 0.60 ± 0.44 %ID/g | Uptake (%ID/g) kidney [2, 4]: 53 ± 27 %ID/g | Uptake (%ID/g) muscle [2, 4]: 0.68 ± 0.61 %ID/g | Uptake (%ID/g) pancreas [2, 4]: 0.51 ± 0.37 %ID/g | tissue uptake at 10 min (in vivo; Uptake (%ID/g) blood): 3.1 ± 0.34 %ID/g | tissue uptake at 25 min (in vivo; Uptake (%ID/g) blood): 2.9 ± 1.3 %ID/g | tissue uptake at 0.75 h (in vivo; Uptake (%ID/g) blood): 1.3 ± 0.33 %ID/g | tissue uptake at 10 min (in vivo; Uptake (%ID/g) brain): 0.079 ± 0.017 %ID/g | tissue uptake at 25 min (in vivo; Uptake (%ID/g) brain): 0.13 ± 0.11 %ID/g | tissue uptake at 0.75 h (in vivo; Uptake (%ID/g) brain): 0.061 ± 0.049 %ID/g | tissue uptake at 10 min (in vivo; Uptake (%ID/g) femur): 0.95 ± 0.25 %ID/g | tissue uptake at 25 min (in vivo; Uptake (%ID/g) femur): 0.78 ± 0.27 %ID/g | tissue uptake at 0.75 h (in vivo; Uptake (%ID/g) femur): 0.73 ± 0.29 %ID/g | tissue uptake at 10 min (in vivo; [3]): 1.1 ± 0.71 %ID/g | tissue uptake at 25 min (in vivo; [3]): 1.9 ± 0.79 %ID/g | tissue uptake at 10 min (in vivo; Uptake (%ID/g) heart): 1.2 ± 0.1 %ID/g | tissue uptake at 25 min (in vivo; Uptake (%ID/g) heart): 1.3 ± 0.49 %ID/g | tissue uptake at 0.75 h (in vivo; Uptake (%ID/g) heart): 0.72 ± 0.36 %ID/g | tissue uptake at 10 min (in vivo; Uptake (%ID/g) intestine): 1.8 ± 0.22 %ID/g | tissue uptake at 25 min (in vivo; Uptake (%ID/g) intestine): 2.4 ± 0.68 %ID/g | tissue uptake at 10 min (in vivo; Uptake (%ID/g) kidney): 47 ± 3.4 %ID/g | tissue uptake at 25 min (in vivo; Uptake (%ID/g) kidney): 47 ± 7 %ID/g | tissue uptake at 0.75 h (in vivo; Uptake (%ID/g) kidney): 55 ± 28 %ID/g | tissue uptake at 10 min (in vivo; Uptake (%ID/g) liver): 7.2 ± 0.83 %ID/g | tissue uptake at 25 min (in vivo; Uptake (%ID/g) liver): 5.7 ± 1.6 %ID/g | tissue uptake at 10 min (in vivo; Uptake (%ID/g) lung): 2.4 ± 0.3 %ID/g | tissue uptake at 25 min (in vivo; Uptake (%ID/g) lung): 2.8 ± 1.5 %ID/g | tissue uptake at 0.75 h (in vivo; Uptake (%ID/g) lung): 1.2 ± 0.34 %ID/g | tissue uptake at 10 min (in vivo; Uptake (%ID/g) muscle): 1.1 ± 0.18 %ID/g | tissue uptake at 25 min (in vivo; Uptake (%ID/g) muscle): 0.57 ± 0.23 %ID/g | tissue uptake at 0.75 h (in vivo; Uptake (%ID/g) muscle): 0.55 ± 0.23 %ID/g | tissue uptake at 10 min (in vivo; Uptake (%ID/g) pancreas): 1.3 ± 0.83 %ID/g | tissue uptake at 25 min (in vivo; Uptake (%ID/g) pancreas): 1.1 ± 1.1 %ID/g | tissue uptake at 0.75 h (in vivo; Uptake (%ID/g) pancreas): 0.9 ± 0.57 %ID/g | tissue uptake at 10 min (in vivo; Uptake (%ID/g) spleen): 2.5 ± 0.25 %ID/g | tissue uptake at 25 min (in vivo; Uptake (%ID/g) spleen): 2.6 ± 0.6 %ID/g | tissue uptake at 10 min (in vivo; Uptake (%ID/g) tumor): 3.6 ± 0.2 %ID/g | tissue uptake at 25 min (in vivo; Uptake (%ID/g) tumor): 7.3 ± 1.8 %ID/g | logD (physchem): -3.06
Compound: CC[C@H](C)[C@H](NC(=O)[C@@H](NC(=O)[C@@H]1CCCN1C(=O)[C@H](CCCNC(=N)N)NC(=O)[C@H](CCCNC(N)=NC(=O)NCCCCNC(=O)CN1CCN(CC(=O)O)CCN(CC(=O)O)CCN(CC(=O)O)CC1)NC)C(C)(C)c1ccc(O)cc1)C(=O)N[C@@H](CC(C)C)C(=O)O [[^68Ga]56, metal not drawn]

Further lines, the compound ahead of its results:

Compound: CC[C@H](C)[C@H](NC(=O)[C@H](Cc1ccc(O)cc1)NC(=O)[C@@H]1CCCN1C(=O)[C@H](CCCNC(=N)N)NC(=O)[C@@H](N)CCCNC(=N)N)C(=O)N[C@@H](CC(C)C)C(=O)O [Compound 1, Arg^8-Arg^9-Pro^10-Tyr^11-Ile^12-Leu^13]
plasma half-life [1]: only a few minutes | % Intact Peptide in Plasma after 10 min ([1]; human plasma, 37 °C, 10 min, ref Schindler et al. [40]): 23 ^d % | % Intact Peptide in Plasma after 1 h ([1]; human plasma, 37 °C, 1 h, ref Schindler et al. [40]): <1 ^d % | % Intact Peptide in Plasma after 24 h ([1]; human plasma, 37 °C, 24 h, ref Schindler et al. [40]): <1 ^d % | % Intact Peptide in Plasma after 48 h ([1]; human plasma, 37 °C, 48 h, ref Schindler et al. [40]): <1 ^d %

Compound: CN[C@@H](CCCNC(N)=NC(=O)NCCCCNC(=O)CN1CCN(CC(=O)O)CCN(CC(=O)O)CCN(CC(=O)O)CC1)C(=O)N[C@@H](CCCNC(=N)N)C(=O)N1CCC[C@H]1C(=O)N[C@@H](Cc1ccc(O)cc1)C(=O)N[C@H](C(=O)N[C@@H](CC(C)C)C(=O)O)C(C)(C)C [[^68Ga]21, metal not drawn]
tumor-to-muscle ratio [2]: 9.5 | tissue to tissue ratio at 0.75 h (in vivo): 9.5 ± 3.7 | tissue uptake at 0.75 h (in vivo; Uptake (%ID/g) blood): 0.63 ± 0.2 %ID/g | tissue uptake at 0.75 h (in vivo; [3]): 0.55 ± 0.29 %ID/g | tissue uptake at 0.75 h (in vivo; Uptake (%ID/g) kidney): 6 ± 1.9 %ID/g | tissue uptake at 0.75 h (in vivo; Uptake (%ID/g) liver): 0.59 ± 0.17 %ID/g | tissue uptake at 0.75 h (in vivo; Uptake (%ID/g) muscle): 0.21 ± 0.062 %ID/g | tissue uptake at 0.75 h (in vivo; Uptake (%ID/g) tumor): 1.9 ± 0.7 %ID/g | logD (physchem): -3.87
